Measured values: US20030232801A1, “Identification of compounds for the treatment or prevention of proliferative diseases” (priority 2001, published 2003)

What was measured:
[1] = tested on: primary peripheral blood mononuclear cells (PBMCs); experiment: Viability of PBMCs on administration of MES 51151 (FIG. 3); format: cell-based; conditions: concentration of 10 μM
Description: (§1) FIG. 3 is a graph of the effect of administration of MES 51151 on the viability of 6D-2 cells and PBMCs.
(§2) Toxicity of the transfected cells increased with increased concentration of MES 51151 administered to the cells (FIG. 3, showing the percent viable 6D-2 cells compared to control cells). MES 51151 was administered to primary peripheral blood mononuclear cells (PBMCs) to test for its effect on cell toxicity. MES 51151 was not toxic to the PBMCs (FIG. 3, showing the percent viable PBMCs compared to control cells). The EC50 of MES 51151 when administered to the 6D-2 cancer cell line was less than 100 nM, yet MES 51151 was not toxic to PBMCs even when administered at a concentration of 10 μM. Therefore, the therapeutic index of MES 51151 is at least 100, and may be even higher. […] Thus, this compound may potentially be employed for the treatment or prevention of proliferative diseases, including cancer.

[2] = tested on: luciferase reporter operatively linked to HER2 5′ and 3′UTRs; experiment: HER2 UTR/luciferase reporter screening assay in stably transfected MCF7 (6D-2) cells; format: cell-based, human; conditions: HER2 5′ and 3′UTR/luciferase reporter
Description: The HER2 UTR/reporter nucleic acid stably transfected cell system described above was used to identify compounds that either increased or decreased the level of HER2 translation efficiency. Small molecules from a library of candidate compounds (MES library, Message Pharmaceuticals, Malvern, Pa., containing, for example, small molecules from a commercially available Nanoscale Combinatorial Synthesis Inc. (Mountain View, Calif.) library) were administered to 6D-2 cells containing the stably transfected luciferase reporter nucleic acid sequence operatively linked to HER2 5′ and 3′UTRs to identify compounds that modulate HER2 translation efficiency. Each candidate compound was administered at a concentration of 10 μM.
After 16 hours of exposure to the compound, the level of luciferase protein activity was measured in candidate compound-treated cells containing the luciferase construct only, or in cells containing the luciferase/UTRs that were not treated with the candidate compound, or are treated with the candidate compound vehicle only (control cells), and compared to activity levels in candidate compound-treated cells containing the luciferase construct with the UTRs (test cells). […]

[3] = tested on: MT-4 cells (adult human T-cell leukemia cells); experiment: Cellular toxicity, MTS cell viability, MT-4 cells; format: cell-based; conditions: Homo sapiens, MT4, 120 h, 5 day, MTS viability
Description: (§3) 6D-2 cells (MCF-7 human breast cancer cells stably transfected with luciferase linked to the 5′ and 3′UTRs of human HER2) were added to 96-well plates at 7500 cells per well in 200 μL medium and incubated for 24 hours at 100% humidity, 5% CO2, and 37° C. Compounds were diluted from DMSO stock solutions into medium and were added at various concentrations. The 6D-2 cells were incubated for 16 hours at which time the volume of medium in each well was reduced to 100 μL using a plate washer. 20 μL of MTS cell viability reagent (Promega, Madison, Wis.) was then added to each well, and the plates were incubated for 1-4 hours. A plate containing wells with 100 μL medium plus MTS reagent was prepared to determine the background reading. The plates were read on the Wallac 2 plate reader (PerkinElmer Life Science, Boston, Mass.) at 490 nm. Percent viability was calculated as (O.D. of compound treated cells−background O.D.)/(O.D. of DMSO treated cells−background O.D.)×100. MT-4 cells (adult human T-cell leukemia cells) were plated at 1.5×10^5 cells per well in 200 μL medium and incubated for at least one hour before the addition of compounds. The cells were incubated for 5 days at 100% humidity, 5% CO2, and 37° C. Cell viability was determined as described for 6D-2 cells.
(§4) Compounds of the invention containing a pyrrolidine substituent were tested for toxicity to cancerous and non-cancerous cells. 6D-2 cellular activity is representative of potency as an antitumor agent. MT-4 cellular activity is representative of general toxicity. A high IC50 for MT-4 cells and a low IC50 for 6D-2 cells is indicative of a compound of potential therapeutic use in treating or preventing proliferative diseases, such as cancer.

6D-2 cancer cell line = experiment: Viability of 6D-2 cells on administration of MES 51151 (FIG. 3); format: cell-based, human
Description: as §1, §2

[4] = Cellular toxicity, MTS cell viability, 6D-2 cells; format: cell-based, human; conditions: Homo sapiens, MCF7, MTS viability
Description: as §3, §4

## CC(=O)Nc1ccc(NC2=C(N3CCCC3)C(=O)c3ccccc3C2=O)cc1 [Example 2]
[1]
  Toxicity to PBMCs: not toxic
[2]
  Luciferase activity: reduced luciferase activity through toxicity
[3]
  IC50: 80 nM
6D-2 cancer cell line; 6D-2 EC50 versus non-toxic concentration in PBMCs
  Therapeutic index: at least 100
6D-2 cancer cell line; Homo sapiens, 6D-2 cells, toxicity (percent viable cells compared to control), read-out: EC50 when administered to the 6D-2 cancer cell line
  EC50: < 100 nM
[4]
  IC50: 250 nM
